We go through two compounds from paper PMC11887051, “Discovery of ONO-2920632 (VU6011887): A Highly Selective and CNS Penetrant TREK-2 (TWIK-Related K+ Channel 2) Preferring Activator In Vivo Tool Compound” (ACS Chemical Neuroscience, 2025).

The structures appear in SMILES notation. Where two headings read alike, the source gives them in different places.

Data set [1] addresses T1, TREK-1 (Homo sapiens, UniProt O95069).
T1 sequence (O95069 1-426): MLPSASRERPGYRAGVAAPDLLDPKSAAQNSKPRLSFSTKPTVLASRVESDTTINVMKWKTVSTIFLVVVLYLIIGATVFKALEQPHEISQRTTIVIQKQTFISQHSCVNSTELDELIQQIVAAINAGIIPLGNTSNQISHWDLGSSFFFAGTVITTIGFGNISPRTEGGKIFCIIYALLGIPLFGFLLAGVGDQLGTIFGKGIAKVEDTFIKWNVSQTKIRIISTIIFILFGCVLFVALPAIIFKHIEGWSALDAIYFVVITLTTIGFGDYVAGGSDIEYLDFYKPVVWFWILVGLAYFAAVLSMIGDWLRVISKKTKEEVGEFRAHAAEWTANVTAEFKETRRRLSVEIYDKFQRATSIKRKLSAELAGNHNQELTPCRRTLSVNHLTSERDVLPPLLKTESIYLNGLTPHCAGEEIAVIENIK
Details: method as in PMID 32851651. To be noted: read-out: functional EC50 for activation of TREK-1; cited from earlier work.

A further data set deals with rodents. Details: method as in PMID 32851651. The following applies: cited from earlier work.
In data set [2] the target is T1, TREK-1. The data set is described as follows: TREK-1 activation, BL-1249 series (assay not given). The following applies: assay format not stated. It counts as cell-based.
A further data set has as its target T2, TREK-2 (Homo sapiens, UniProt P57789).
T2 sequence (P57789 1-538): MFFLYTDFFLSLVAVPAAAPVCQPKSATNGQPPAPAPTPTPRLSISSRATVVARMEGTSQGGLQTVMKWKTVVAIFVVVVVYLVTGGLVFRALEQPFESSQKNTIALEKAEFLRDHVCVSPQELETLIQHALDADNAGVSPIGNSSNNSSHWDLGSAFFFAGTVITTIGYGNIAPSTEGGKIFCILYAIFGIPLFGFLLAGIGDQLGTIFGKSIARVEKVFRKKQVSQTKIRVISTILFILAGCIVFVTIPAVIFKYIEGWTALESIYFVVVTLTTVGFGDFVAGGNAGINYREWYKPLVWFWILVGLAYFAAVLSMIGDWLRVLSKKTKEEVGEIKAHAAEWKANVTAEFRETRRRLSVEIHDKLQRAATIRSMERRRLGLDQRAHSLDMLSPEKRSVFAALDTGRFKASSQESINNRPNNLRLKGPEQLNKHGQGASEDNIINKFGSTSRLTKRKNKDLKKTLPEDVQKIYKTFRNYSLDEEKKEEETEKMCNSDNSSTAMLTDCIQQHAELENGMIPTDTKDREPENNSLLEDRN
The data set is described as follows: TREK-2 activation, BL-1249 series (assay not given). Type of data set: cell-based. The following applies: assay format not stated.

Data set [3] in a line: rat predicted hepatic clearance (hepatic microsomes). It counts as in vitro ADME. The method, then: Intrinsic clearance: Human or rat hepatic microsomes (0.5 mg/mL) and 1 µM test compound were incubated in 100 mM potassium phosphate pH 7.4 buffer with 3 mM MgCl2 at 37 °C with constant shaking. After a 5 min preincubation, the reaction was initiated by the addition of NADPH (1 mM). At selected time intervals (0, 3, 7, 15, 25, and 45 min), aliquots were taken and subsequently placed into a 96-well plate containing cold acetonitrile with internal standard (50 ng/mL carbamazepine). Plates were then centrifuged at 3000 rcf (4 °C) for 10 min, and the supernatant was transferred to a separate 96-well plate and diluted 1:1 with water for LC/MS/MS analysis. The in vitro half-life ( 1/2, min, Eq. 1), intrinsic clearance (CLint, mL/min/kg, Eq. 2), and subsequent predicted hepatic clearance (CLhep, mL/min/kg, Eq. 3) was determined employing the […]
where k represents the slope from linear regression analysis of the natural log percent remaining of a test compound as a function of incubation time […]
(2) CLint = in vitroT1/2 x mg microsomes x gram liver x kg body wt ascale-up factors: of 20 (human) or 45 (rat) […]
where Qh (hepatic blood flow, mL/min/kg) is 21 (human) or 70 (rat).
LC/MS/MS Bioanalysis of Samples from Plasma Protein Binding and Intrinsic Clearance […]
Samples were analyzed on a Thermo Electron TSQ Quantum Ultra triple quad mass spectrometer (San Jose, CA) via electrospray ionization (ESI) with two Themo Electron Accella pumps (San Jose, CA), and a Leap Technologies CTC PAL autosampler (Carrboro, NC). Analytes were separated by gradient elution on a dual column system with two Thermo Hypersil Gold (2.1 x 30 mm, 1.9 µm) columns (San Jose, CA) thermostated at 40 °C. HPLC mobile phase A was 0.1% formic acid in water and mobile phase B was 0.1% formic acid in acetonitrile. The gradient started […]
for 0.2 min; returned to 10% B in 0.1 min. The total run time was 1.3 min and the HPLC flow rate was 0.8 mL/min. While pump 1 ran the gradient method, pump 2 equilibrated the alternate column isocratically at 10% B. Compound optimization, data collection, and processing was performed using Thermo Electron's QuickQuan software (v2.3) and Xcalibur (v2.0.7 SP1).

Data set [4] in a line: rat plasma protein binding (equilibrium dialysis). It counts as in vitro ADME. To be noted: pH 7.4, read-out: rat plasma fu. Here is the method: In vitro Plasma protein binding and Brain homogenate binding: Determination of fraction unbound (f u) in plasma was conducted in vitro via equilibrium dialysis using HTDialysis (HTD) membrane plates. The top half of the plate was filled with 100 uL of Dubelco’s Phosphate Buffered Saline, pH 7.4 (DPBS). Compounds were diluted into plasma from each species (5 µM final concentration), which was aliquoted in triplicate to the ‘bottom half’ of the prepared HTD plate wells. The HTD plate was sealed and incubated for 6 hours at 37 °C. Following incubation, each well (both top and bottom halves) were transferred (20 µL) to the corresponding wells of a 96-shallow-well (V-bottom) plate. The daughter plates were then matrix-matched (DPBS side wells received equal volume of plasma, and plasma side wells received equal volume of DPBS), and extraction solution (120 µL; acetonitrile containing 50 nM carbamazepine as IS) was added to all wells of both daughter plates to precipitate protein and extract test article. The plates were then sealed and centrifuged (3500 rcf) for 10 minutes at ambient temperature. Supernatant (60 µL) from each well of the daughter plates was then transferred to the corresponding wells of new daughter plates (96-shallow-well, V bottom) containing water (Milli-Q, 60 µL/well), and the plates were sealed in preparation for LC-MS/MS analysis (see LC-MS/MS analysis method below).
The unbound fraction (f u) was calculated following the equation below, and mean values for each species were calculated from 3 replicates. […]
Fraction unbound for both plasma and brain samples was determined using Equation 4.
Equation 4 Determination of fraction unbound in plasma. […]
For orientation: In equilibrium dialysis only unbound substance equilibrates across the membrane.

As to `N#C/C(=C\c1ccoc1)C(=O)O` [Compound 3], on TREK-1 [1], the EC50 – broadly, the concentration that produces a half-maximal response – is 37 µM. Further, the “morphine-like adverse events at efficacious doses” value with rodents is listed as “did not induce respiratory depression, rewarding effects, depression, constipation or other morphine-inducing adverse events”. In the data set on rodents (naïve rodents and models of neuropathic and inflammatory pain), the antinociceptive activity result is listed as “antinociceptive activity”.

As to `O=c1[nH]c(-c2ccc(F)cc2Nc2cccc(C(F)(F)F)c2)no1` [Compound 11], the EC50 on TREK-1 [2] stood at 3.6 µM; on TREK-2, 12.9 µM. Moreover, the Emax (in general, the greatest response seen or fitted, relative to the assay's reference) at TREK-1 [2] was 67%; at TREK-2, 129%. For the same compound, the “rat CLhep (predicted hepatic clearance)” value in data set [3] is recorded as 26.8 mL/min/kg. Also, the fraction unbound at 6 h, 5 µM in data set [4] was determined as 0.042.
